Test results reported in patent US20080214563A1, “Benzimidazole Thiophene Compounds As Plk Modulators” (priority 2005, published 2008).

What was measured:
[1] = Intravenous pharmacokinetics in CD-1 mouse; type: in vivo; conditions: plasma, iv bolus, male CD-1 mouse, dose 1.9-7.4 mg/kg per compound (Table 3); for clearance: read-out: Plasma CL
P388 = assay: Cell-Titer Glo Cell Growth Inhibition Assay, P388; type: cell-based, murine; conditions: Mus musculus, CellTiter-Glo, 72 h, read-out: CTG P388 IC50
Procedure: A549-L (human lung), BT474 (human breast), Colo 205 (human colon), H1299 (human lung), Hela (human cervix), HCT-116 (human colon), HN5 (human head and neck), HT29 (human colon), LNCap (human prostate), MCF7 (human breast), MDA-MB468 (human breast), MX-1 (human breast), RPMI 8226 (human peripheral blood), SKOV3 (human ovary) and P388 (murine leukemia) cell lines were cultured in RPMI1640 containing 10% fetal bovine serum at 37° C. in a 5% CO2 incubator. Cell lines were split into T75 flasks (Falcon #353136) two to three days prior to assay set up at density which yields approximately 70-80% confluency at time of harvest for assay. Cells were harvested using 0.25% trypsin with EDTA (Glibco/Invitrogen #25200-056), Cell counts were performed on cell suspensions using Trypan Blue exclusion staining, cells were then plated in 105 uL of culture media per well at the following densities in 96 well Costar #3916 black flat bottom plates: All human cell lines were plated at 500 cells/well. P388 were plated at 250 cells/well. All plates were placed at 5% CO2 37° C. overnight and then test compounds were added the following day. One plate of each cell type is treated with CellTiter-Glo (Promega #G7573) for a day 0 proliferation measurement and read as described below. The test compounds are prepared in clear U bottom polypropylene 96 well plates (Falcon #35-1190 with consecutive two fold dilutions. 9 uL of these dilutions was added into each well of the cell plates. The final concentration of DMSO in all wells is 0.15%. Cells were incubated at 37° C., 5% CO2 for 72 h. Following 72 h of incubation with compounds each plate was developed and read. CellTiter-Glo reagent was added to assay plates using a volume equivalent to the cell culture volume in the wells. Plates were shaken for approximately two minutes and incubated at room temperature for approximately 15 min and the chemiluminescent signal is read on the Victor V or Envison 2100 reader. […] Concentration of compound that inhibited 50% of cell growth (IC50) was analysis by 4 or 6 parameter fit of data using XLfit, value of no cell addition was subtracted from all samples for background.

| AUC(0-t) [1] [ng·h/mL] | clearance [1] [mL/min/kg] | IC50 (P388) [nM] | SMILES |
| --- | --- | --- | --- |
| 3420 | 23.5 | 100 to 1000 | C[C@@H](Oc1cc(-n2cnc3cc(-c4ccc(N5CCNCC5)nc4)ccc32)sc1C(N)=O)c1ccccc1C(F)(F)F [Example 1, 5-{5-[6-(1-piperazinyl)-3-pyridinyl]-1H-benzimidazol-1-yl}-3-({(1R)-1-[2-(trifluoromethyl)phenyl]ethyl}oxy)-2-thiophenecarboxamide] |
| 3740 | 33 | < 100 | C[C@@H](Oc1cc(-n2cnc3cc(-c4ccc(N5CCNCC5)nc4)ccc32)sc1C(N)=O)c1ccccc1Cl [Example 7, 3-{[(1R)-1-(2-Chlorophenyl)ethyl]oxy}-5-{5-[6-(1-piperazinyl)-3-pyridinyl]-1H-benzimidazol-1-yl}-2-thiophenecarboxamide] |

| SMILES | AUC(0-t) [1] [ng·h/mL] | clearance [1] [mL/min/kg] | IC50 (P388) [nM] |
| --- | --- | --- | --- |
| C[C@@H](Oc1cc(-n2cnc3cc(-c4cnn(C)c4)ccc32)sc1C(N)=O)c1ccccc1Cl [Example 9, 3-{[(1R)-1-(2-Chlorophenyl)ethyl]oxy}-5-[5-(1-methyl-1H-pyrazol-4-yl)-1H-benzimidazol-1-yl]-2-thiophenecarboxamide] | 5760 | 12.1 | 100 to 1000 |
